Measured values as given in paper PMC8151276, “An Integrated Approach toward NanoBRET Tracers for Analysis of GPCR Ligand Engagement” (Molecules, 2021).

Biological target: T1, RXFP1 (Homo sapiens, UniProt Q9HBX9)
T1 construct: purchased Promega (in-house HiBiT-GPCR construct library, NanoBRET)
T1 sequence (Q9HBX9 1-757): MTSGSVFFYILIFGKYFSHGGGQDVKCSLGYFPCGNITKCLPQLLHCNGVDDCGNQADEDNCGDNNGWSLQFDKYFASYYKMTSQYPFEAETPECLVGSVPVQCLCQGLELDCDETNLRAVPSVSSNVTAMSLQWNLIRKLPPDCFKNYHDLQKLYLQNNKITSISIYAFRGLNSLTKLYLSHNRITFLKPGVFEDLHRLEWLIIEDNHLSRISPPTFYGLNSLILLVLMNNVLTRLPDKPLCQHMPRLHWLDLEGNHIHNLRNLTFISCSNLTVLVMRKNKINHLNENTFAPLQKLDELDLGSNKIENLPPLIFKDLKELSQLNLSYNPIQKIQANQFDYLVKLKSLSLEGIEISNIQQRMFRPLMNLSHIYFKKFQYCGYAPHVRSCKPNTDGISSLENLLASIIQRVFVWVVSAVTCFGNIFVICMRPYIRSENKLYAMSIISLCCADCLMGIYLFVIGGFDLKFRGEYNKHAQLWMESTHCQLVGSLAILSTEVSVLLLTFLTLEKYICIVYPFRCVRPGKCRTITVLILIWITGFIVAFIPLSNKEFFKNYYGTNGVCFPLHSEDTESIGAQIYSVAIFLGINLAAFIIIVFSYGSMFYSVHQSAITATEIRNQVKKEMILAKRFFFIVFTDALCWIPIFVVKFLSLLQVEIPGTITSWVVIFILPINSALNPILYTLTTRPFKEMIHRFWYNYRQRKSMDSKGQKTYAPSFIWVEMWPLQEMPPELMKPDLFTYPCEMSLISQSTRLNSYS
Assay: NanoBRET screen HiBiT-RXFP1 in HEK293
Format: binding
Description: Each tracer candidate was screened across the entire library of HiBiT-GPCR constructs using NanoBRET as the detection modality. As depicted in Figure 4A, the specificity of interactions was evaluated through decrease in BRET due to competitive displacement of a bound tracer by excess parental compound. Each tracer was analyzed for binding to each HiBiT-GPCR fusion in the absence and in the presence of competing parental compound. Briefly, HEK293 cells were transfected with HiBiT-GPCR constructs diluted into promoterless DNA to reduce expression and maximize translocation to the cell surface. Each tracer candidate was then screened at concentrations of 1 μM and 0.1 μM across cells expressing these fusions. Cells were treated for 1.5 h with tracer either alone or in the presence of 20 μM competing parental compound (i.e., control). BRET was measured upon addition of purified LgBiT and subsequent complementation with HiBiT genetically fused to a GPCR. The specificity of interactions was assessed through a decrease in BRET signal due to competitive displacement of the bound tracer. To further gauge the robustness of these interactions, the fold response over the control (i.e., BRETtracer/BRETcontrol) was calculated. We chose a 1.5-fold response, which translates to ≥7-fold signal over noise as the minimal threshold required to score an interaction as positive.
HiBiT-GPCR DNA constructs were diluted in 10 mM Tris pH 8 to a final concentration of 0.01 μg/μL, arrayed in 96-well plates and stored at −20 °C. For transfection, HEK293 cells were suspended in Opti-MEM (without phenol red) supplemented with 2% fetal bovine serum (Seradigm) and 100 units/mL penicillin–streptomycin (Gibco) at a final concentration of 220,000 cells/mL and dispensed into white 96-well plates at 90 μL/well. Subsequent transfections and screens were carried using an Agilent Bravo Automated Liquid Handling Platform. First, the 96-well HiBiT DNA arrays were diluted 25-fold in Opti-MEM (without serum or phenol red) to a final concentration of 0.0004 μg/μL and 20 μL of the diluted DNAs were transferred into new 96-well plates. Next, promoterless carrier DNA (1 μg/μL) was diluted 25-fold (0.04 μg/μL) and then dispensed into the diluted arrays at 20 μL/well. Following brief mixing, Viafect transfection reagent (Promega) diluted 16-fold into Opti-MEM was dispensed into the plates at 40 μL/well. After mixing by pipetting, plates were incubated for 10 min on the pipetting station deck. The DNA-transfection reagent complexes were then added to plates containing cells. To facilitate the screen, 10 μL of DNA-transfection reagent complexes were added in duplicates to the top 4 and bottom 4 rows, resulting in two identical 48-well arrays per plate. Plates with transfected cells were incubated for 18–20 h at 37 °C/5% CO2. A screen of each tracer across the entire library using two different concentrations requires duplicate plates of transfected cells. Depending on the number of tracers being screened, transfections can be scaled up using the same ratios. The next day, for each tracer, four 20× screening solutions in tracer dilution buffer (Promega) were prepared: two duplicates at final concentration of 20 μM and two duplicates at a final concentration of 2 μM. […] The four resulting solutions were diluted 4-fold in Opti-MEM without serum or phenol red to generate 5× solutions (5 µM and 0.5 µM tracer +/− 100 μM competing compound). To screen the library, a BioTek MultiFlo FX liquid dispenser was used to dispense 22.5 µL of tracer solution to the top 4 rows and 22.5 µL tracer + competing compound solution to the 4 bottom rows. Plates were briefly mixed on an orbital shaker and incubated for 1.5 h at room temperature. […] Plates were briefly mixed on an orbital shaker and incubated for 15 min to allow complementation.

CCOC(=O)c1cc(C#N)c(N2CCC(C(=O)NS(=O)(=O)Cc3ccccc3/C=C/C(=O)NCCNC(=O)CCc3ccc4n3[B-](F)(F)[N+]3=C(c5ccc[nH]5)C=CC3=C4)CC2)nc1C [AZD1283-1-NB590]
NanoBRET Fold Response (RXFP1, 0.1μM): 1.16 | NanoBRET Fold Response (RXFP1, 1μM): 0.49

N#CN=C(NCCCOc1cccc(CN2CCCCC2)c1)NCCNC(=O)CCOCCOCCOCCOCCNC(=O)CCc1ccc2n1[B-](F)(F)[N+]1=C(c3ccc[nH]3)C=CC1=C2 [Aminopotentidine-2-NB590]
NanoBRET Fold Response (RXFP1, tracer 0.1μM): 0.79 | NanoBRET Fold Response (RXFP1, tracer 1μM): 1.28

CN(C)CCC=C1c2ccccc2CCc2ccc(C(=O)NCCNC(=O)CCOCCOCCOCCOCCNC(=O)CCc3ccc4n3[B-](F)(F)[N+]3=C(c5ccc[nH]5)C=CC3=C4)cc21 [Amitriptyline-b-2-NB590]
NanoBRET Fold Response (tracer at 0.1μM): 0.90 | NanoBRET Fold Response (tracer at 1μM): 1.13

COc1ccc2c(n1)c(CCNC(C)=O)cn2CCNC(=O)CCc1ccc2n1[B-](F)(F)[N+]1=C(c3ccc[nH]3)C=CC1=C2 [Azamelatonin-1-NB590]
NanoBRET Fold Response (0.1μM tracer): 1.38 | NanoBRET Fold Response (1μM tracer): 1.20

COc1ccc2[nH]c(-c3ccc(CNC(=O)CCOCCOCCOCCOCCNC(=O)CCc4ccc5n4[B-](F)(F)[N+]4=C(c6ccc[nH]6)C=CC4=C5)cc3)c(CCNC(C)=O)c2n1 [AzomelatoninICO9-2-NB590]
NanoBRET Fold Response (0.1μM tracer): 1.23 | NanoBRET Fold Response (1μM tracer): 1.24

O=C(CCOCCOCCOCCOCCNC(=O)CCc1ccc2n1[B-](F)(F)[N+]1=C(c3ccc[nH]3)C=CC1=C2)NCCCN1CCN(C2=Nc3cc(Cl)ccc3Nc3ccccc32)CC1 [Clozapine-a-2-NB590]
NanoBRET Fold Response (RXFP1, 0.1μM tracer): 1.12 | NanoBRET Fold Response (RXFP1, 1μM tracer): 1.23

CN1CCN(C2=Nc3cc(Cl)ccc3Nc3ccc(CNC(=O)CCOCCOCCOCCOCCNC(=O)CCc4ccc5n4[B-](F)(F)[N+]4=C(c6ccc[nH]6)C=CC4=C5)cc32)CC1 [Clozapine-b-2-NB590]
NanoBRET Fold Response (RXFP1, 0.1μM tracer): 0.90 | NanoBRET Fold Response (RXFP1, 1μM tracer): 0.75

CN1CCN(C2=Nc3cc(Cl)ccc3N(CC(=O)NCCOCCOCCOCCOCCNC(=O)CCc3ccc4n3[B-](F)(F)[N+]3=C(c5ccc[nH]5)C=CC3=C4)c3ccccc32)CC1 [Clozapine-c-2-NB590]
NanoBRET Fold Response (RXFP1, 0.1μM tracer): 0.85 | NanoBRET Fold Response (RXFP1, 1μM tracer): 1.27

O=C(CCOCCOCCOCCOCCNC(=O)CCc1ccc2n1[B-](F)(F)[N+]1=C(c3ccc[nH]3)C=CC1=C2)NCCCN1CCN(C2=Nc3ccccc3Oc3ccc(Cl)cc32)CC1 [Loxapine-a-2-NB590]
NanoBRET Fold Response (RXFP1, tracer 0.1μM): 0.94 | NanoBRET Fold Response (RXFP1, tracer 1μM): 0.80

COc1ccccc1N1CCN(CCCCN2C(=O)c3ccc(CNC(=O)CCOCCOCCOCCOCCNC(=O)CCc4ccc5n4[B-](F)(F)[N+]4=C(c6ccc[nH]6)C=CC4=C5)cc3C2=O)CC1 [NAN-190-2-NB590]
NanoBRET Fold Response (RXFP1, tracer 0.1μM): 0.78 | NanoBRET Fold Response (RXFP1, tracer 1μM): 0.92

COc1ccccc1N1CCN(CCCCN2C(=O)c3ccc(CNC(=O)CCOCCNC(=O)c4ccc(CNC(=O)CCc5ccc6n5[B-](F)(F)[N+]5=C(c7ccc[nH]7)C=CC5=C6)cc4)cc3C2=O)CC1 [NAN-190-3-NB590]
NanoBRET Fold Response (RXFP1, tracer 0.1μM): 0.88 | NanoBRET Fold Response (RXFP1, tracer 1μM): 0.90

O=C(CCc1ccc2n1[B-](F)(F)[N+]1=C(c3ccc[nH]3)C=CC1=C2)NCc1ccc(C(=O)NCCOCCC(=O)N[C@@H]2CC[C@@]3(O)[C@H]4Cc5ccc(O)c6c5[C@@]3(CCN4CC3CC3)[C@H]2O6)cc1 [Naltrexone-3-NB590]
NanoBRET Fold Response (RXFP1, tracer 0.1μM): 1.31 | NanoBRET Fold Response (RXFP1, tracer 1μM): 1.24

Cc1cc2c(s1)Nc1ccccc1N=C2N1CCN(CCCNC(=O)CCOCCOCCOCCOCCNC(=O)CCc2ccc3n2[B-](F)(F)[N+]2=C(c4ccc[nH]4)C=CC2=C3)CC1 [Olanzapine-a-2-NB590]
NanoBRET Fold Response (RXFP1, tracer 0.1μM): 1.25 | NanoBRET Fold Response (RXFP1, tracer 1μM): 0.79

O=C(CCc1ccc2n1[B-](F)(F)[N+]1=C(c3ccc[nH]3)C=CC1=C2)NCc1ccc(C(=O)NCCOCCOCCNCC(O)COc2cccc3ccccc23)cc1 (centres unmarked) [Propranolol-3-NB590]
NanoBRET Fold Response (RXFP1, 0.1μM): 0.90 | NanoBRET Fold Response (RXFP1, 1μM): 0.90

O=C(CCc1ccc2n1[B-](F)(F)[N+]1=C(c3ccc[nH]3)C=CC1=C2)NCCOCCOCCNC(=O)OCCOCCN1CCN(C2=Nc3ccccc3Sc3ccccc32)CC1 [Quetiapine-a-2-NB590]
NanoBRET Fold Response (RXFP1, tracer 0.1μM): 0.53 | NanoBRET Fold Response (RXFP1, tracer 1μM): 1.01

Cc1nc2n(c(=O)c1CCN1CCC(c3noc4cc(F)ccc34)CC1)CCCC2OC(=O)NCCOCCOCCOCCOCCNC(=O)CCc1ccc2n1[B-](F)(F)[N+]1=C(c3ccc[nH]3)C=CC1=C2 (centres unmarked) [Risperidone-2-NB590]
NanoBRET Fold Response (RXFP1, tracer 0.1μM): 1.26 | NanoBRET Fold Response (RXFP1, tracer 1μM): 0.90

CC(C)N(CC[C@H](c1ccccc1)c1cc(CCNC(=O)CCOCCOCCOCCOCCNC(=O)CCc2ccc3n2[B-](F)(F)[N+]2=C(c4ccc[nH]4)C=CC2=C3)ccc1O)C(C)C [Tolterodine-2-NB590]
NanoBRET Fold Response (RXFP1, tracer 0.1μM): 1.11 | NanoBRET Fold Response (RXFP1, tracer 1μM): 0.81

CC(C)N(CC[C@H](c1ccccc1)c1cc(CCNC(=O)c2ccc(CNC(=O)CCc3ccc4n3[B-](F)(F)[N+]3=C(c5ccc[nH]5)C=CC3=C4)cc2)ccc1O)C(C)C [Tolterodine-BZ-NB590]
NanoBRET Fold Response (RXFP1, tracer 0.1μM): 1.12 | NanoBRET Fold Response (RXFP1, tracer 1μM): 1.23

CCCn1c(=O)c2[nH]c(-c3ccc(OCC(=O)NCCNC(=O)CCOCCNC(=O)c4ccc(CNC(=O)CCc5ccc6n5[B-](F)(F)[N+]5=C(c7ccc[nH]7)C=CC5=C6)cc4)cc3)nc2n(CCC)c1=O [XAC-3-NB590]
NanoBRET Fold Response (RXFP1, tracer 0.1μM): 1.04 | NanoBRET Fold Response (RXFP1, tracer 1μM): 0.93
